According to US20150216136A1, “PLANT REGENERATION FROM PROTOPLASTS DERIVED FROM ELAEIS sp SUSPENSION CULTURES” (MALAYSIAN PALM OIL BOARD, priority 2012, published 2015):

Tests used:
Type in all cases: cell-based, Elaeis guineensis
[1] = tested on: oil palm protoplasts; assay: Plant growth regulators (PGRs) optimization on agarose solidified cultures; conditions: within PGR combinations, Y3A or Y3D media
Procedure: The PGRs optimization was performed on agarose solidified cultures. All PGRs used were prepared at the concentration of 1 μM/μl and the pH was adjusted to 5.7. The filter-sterilized PGRs were added in 24 wells culture plate at different combinations and concentration as indicated in Table 3.
Protoplast division frequency was calculated by counting the number of protoplasts divided by the total number of protoplasts in one representative microscope field. Three microscopic fields were averaged to represent one experiment in which the experiment was performed in 3 replicates to give an average range of protoplast division frequency. A similar calculation procedure was used for microcolonies and microcalli formation frequencies.

[2] = tested on: microcalli; assay: Control of callus browning in agarose bead culture; conditions: additive in Y35N5D2iP liquid media surrounding agarose beads; AA 200 mg/l
Procedure: The mixture of protoplasts and agarose was prepared by using the same procedure for preparation of agarose solidified cultures with the exception that the protoplast pellet was resuspended in […] liquid media supplemented with the optimum PGRs and 0.6% w/v agarose sea plaque. Agarose beads were prepared by dropping 200 μl of the mixture into a 60 mm×15 mm petri dish. After agarose solidification, 10 ml of 21% v/v osmoticum solution was added to Petri dish and incubated at 28° C. in the dark for 3-5 days. Three types of osmoticum solutions were used: sucrose, glucose and mannitol. Each was dissolved in water, adjusting the pH to 5.7 and then filter-sterilized. The osmoticum solution was replaced with different liquid media in shaking condition at 50 rpm by refreshing the media at 14-day intervals. When the formation of microcolonies was observed, […] liquid media was changed to Y3 liquid media and the agarose beads were cultured until the microcalli were detected. […] The cultures were continued until the microcalli growth to embryogenic calli.

[3] = tested on: oil palm protoplasts; assay: DNA microinjection mediated transformation of alginate layer-embedded protoplasts; conditions: in injected protoplasts at 28° C.
Procedure: Protoplasts were isolated from a 7 day subculture of a 3 month old embryogenic suspension culture as described above. After twice repeating the washing step, the supernatant was mostly removed leaving 3 ml Washing solution. The centrifuge tube containing the protoplast suspension was incubated in a vertical position in the dark for 24 hours at 28° C. After incubation, the protoplast suspension was diluted by 10 ml of Rinse solution and resuspended by inverting the centrifuge tube for 3-5 times, and then centrifuged at 60×g for 5 minutes at 22° C. After repeating the rinsing step, the supernatant was removed completely and the protoplast pellet was embedded with 3 ml filter-sterilized ([…]) alginate solution consisted of 1% w/v alginic acid sodium salt (A2158, Sigma) dissolved in Y3A liquid media (5.5% w/v sucrose and 11.9% w/v glucose supplemented with 10 μM NAA, 2 μM 2.4-D, 2 μM IBA, 2 μM GA3, 2 μM 2iP and 200 mg/L ascorbic acid) adjusted to pH 5.6, in which the Y3 macroelements was prepared without calcium chloride (CaCl2.2H2O).
Alginate-embedded protoplasts were distributed as a thin layer onto supporting media comprising, 1.5 mL filter-sterilized Y3A (5.5% w/v sucrose and 11.9% w/v glucose supplemented with 0.1% w/v CaCl2.2H2O) solidified with 1% w/v agarose sea plaque, in 35 mm×10 mm petri dish (no. 627161, Greiner Bio-One, Germany). […]

Compound | Cell division at concentration higher than 7 μM [1] | other results
O=C(O)CCCc1c[nH]c2ccccc12 [IBA, Indole-3-butyric acid] | inhibited cell division | –
O=[N+]([O-])[O-].[Ag+] [AgNO3, Silver nitrate] | – | Microcalli browning / development of embryogenic callus [2]: did not solve the problem of browning
O=C(O)COc1ccc(Cl)cc1Cl [2,4-D, 2,4-Dichlorophenoxyacetic acid] | inhibited cell division | –
C=C1C[C@]23C[C@@]1(O)CC[C@H]2[C@@]12C=C[C@H](O)[C@@](C)(C(=O)O1)[C@H]2[C@@H]3C(=O)O [GA3, Gibberellic acid A3] | inhibited cell division | –
CC(C)=CCNc1ncnc2nc[nH]c12 [2iP, 2-γ-Dimethylallylaminopurine] | inhibited cell division | –
Lucifer Yellow CH dilithium salt | – | Time the fluorescence property is maintained [3]: 48 h
O=C1O[C@H]([C@@H](O)CO)C(O)=C1O [AA, Ascorbic acid] | – | Microcalli browning / development of embryogenic callus [2]: developed embryogenic callus
